Test results: ChEMBL document CHEMBL3991601, “The target landscape of clinical kinase drugs” (Science, 2017)
Activity calls are given as the source filed them.

biological target: Adenylate kinase 2, mitochondrial (Homo sapiens, UniProt P54819)
Further: in the data inactive means no Kd found up to 30 µM.

Compound	Kd
C1=C/COCc2cc(ccc2OCCN2CCCC2)Nc2nccc(n2)-c2cccc(c2)COC/1 [PACRITINIB]	> 30 µM (inactive)
Cc1ccc(-n2nc(C(C)(C)C)cc2NC(=O)NCc2cc(F)ccc2Oc2ccc3c(cnn3CCO)c2)cc1 [PEXMETINIB]	> 30 µM (inactive)
OCCn1cc(-c2cnc3nnn(Cc4ccc5ncccc5c4)c3n2)cn1 [PF-04217903]	> 30 µM (inactive)
CNC(=O)c1ccc(C)c(-n2c(C)cc(OCc3ccc(F)cc3F)c(Br)c2=O)c1 [PH-797804]	> 30 µM (inactive)
C=CC(=O)N1CCC(Oc2cc3c(Nc4ccc(Cl)c(Cl)c4F)ncnc3cc2OC)CC1 [POZIOTINIB]	> 30 µM (inactive)
CNC(=O)c1cc(Oc2ccc(NC(=O)Nc3ccc(Cl)c(C(F)(F)F)c3)c(F)c2)ccn1 [REGORAFENIB]	> 30 µM (inactive)
COc1cc(OC)c(/C=C/S(=O)(=O)Cc2ccc(OC)c(NCC(=O)O)c2)c(OC)c1 [RIGOSERTIB]	> 30 µM (inactive)
CNC(=O)CN1CCC(Oc2cc3c(Nc4cccc(Cl)c4F)ncnc3cc2OC)CC1 [SAPITINIB]	> 30 µM (inactive)
CN1CCC(CNc2ccc3ncc(-c4cccc(OC(F)(F)F)c4)n3n2)CC1 [SGI-1776]	> 30 µM (inactive)

biological target: T1, Serine/threonine-protein kinase A-Raf (Homo sapiens, UniProt P10398)
T1 sequence (P10398 whole entry): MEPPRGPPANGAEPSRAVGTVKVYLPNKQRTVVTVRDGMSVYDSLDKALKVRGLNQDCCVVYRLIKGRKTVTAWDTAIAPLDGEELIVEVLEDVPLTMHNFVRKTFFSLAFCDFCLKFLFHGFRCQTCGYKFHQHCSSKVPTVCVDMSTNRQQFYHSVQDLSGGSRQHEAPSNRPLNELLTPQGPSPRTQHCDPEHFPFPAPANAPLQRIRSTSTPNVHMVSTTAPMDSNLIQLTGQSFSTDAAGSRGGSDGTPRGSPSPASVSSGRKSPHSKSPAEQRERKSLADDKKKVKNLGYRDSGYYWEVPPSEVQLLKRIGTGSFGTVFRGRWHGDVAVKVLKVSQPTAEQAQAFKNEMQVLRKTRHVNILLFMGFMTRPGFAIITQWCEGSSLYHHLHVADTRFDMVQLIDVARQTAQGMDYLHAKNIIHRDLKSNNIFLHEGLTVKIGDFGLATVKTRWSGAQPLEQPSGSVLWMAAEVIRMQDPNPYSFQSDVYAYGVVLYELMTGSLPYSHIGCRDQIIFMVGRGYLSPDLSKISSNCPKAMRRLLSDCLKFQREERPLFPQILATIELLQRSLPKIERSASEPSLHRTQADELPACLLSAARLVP

Compound	Kd
C1=C/COCc2cc(ccc2OCCN2CCCC2)Nc2nccc(n2)-c2cccc(c2)COC/1 [PACRITINIB]	> 30 µM (inactive)
Cc1ccc(-n2nc(C(C)(C)C)cc2NC(=O)NCc2cc(F)ccc2Oc2ccc3c(cnn3CCO)c2)cc1 [PEXMETINIB]	> 30 µM (inactive)
OCCn1cc(-c2cnc3nnn(Cc4ccc5ncccc5c4)c3n2)cn1 [PF-04217903]	> 30 µM (inactive)
CNC(=O)c1ccc(C)c(-n2c(C)cc(OCc3ccc(F)cc3F)c(Br)c2=O)c1 [PH-797804]	> 30 µM (inactive)
C=CC(=O)N1CCC(Oc2cc3c(Nc4ccc(Cl)c(Cl)c4F)ncnc3cc2OC)CC1 [POZIOTINIB]	> 30 µM (inactive)
CNC(=O)c1cc(Oc2ccc(NC(=O)Nc3ccc(Cl)c(C(F)(F)F)c3)c(F)c2)ccn1 [REGORAFENIB]	> 30 µM (inactive)
COc1cc(OC)c(/C=C/S(=O)(=O)Cc2ccc(OC)c(NCC(=O)O)c2)c(OC)c1 [RIGOSERTIB]	> 30 µM (inactive)
CNC(=O)CN1CCC(Oc2cc3c(Nc4cccc(Cl)c4F)ncnc3cc2OC)CC1 [SAPITINIB]	> 30 µM (inactive)
CN1CCC(CNc2ccc3ncc(-c4cccc(OC(F)(F)F)c4)n3n2)CC1 [SGI-1776]	> 30 µM (inactive)

biological target: Cyclin-dependent kinase 1 (Homo sapiens, UniProt P06493)
Sequence (P06493 whole entry): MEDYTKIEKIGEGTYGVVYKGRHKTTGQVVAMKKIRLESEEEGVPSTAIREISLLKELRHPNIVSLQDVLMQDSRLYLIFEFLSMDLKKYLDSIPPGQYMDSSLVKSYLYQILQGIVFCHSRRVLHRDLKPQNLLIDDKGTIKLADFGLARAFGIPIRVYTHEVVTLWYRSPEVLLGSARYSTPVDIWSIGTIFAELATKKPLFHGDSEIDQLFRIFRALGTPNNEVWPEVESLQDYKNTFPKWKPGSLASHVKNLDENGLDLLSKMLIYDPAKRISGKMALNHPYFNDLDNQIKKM

Compound	Kd
C1=C/COCc2cc(ccc2OCCN2CCCC2)Nc2nccc(n2)-c2cccc(c2)COC/1 [PACRITINIB]	> 30 µM (inactive)
Cc1ccc(-n2nc(C(C)(C)C)cc2NC(=O)NCc2cc(F)ccc2Oc2ccc3c(cnn3CCO)c2)cc1 [PEXMETINIB]	> 30 µM (inactive)
OCCn1cc(-c2cnc3nnn(Cc4ccc5ncccc5c4)c3n2)cn1 [PF-04217903]	> 30 µM (inactive)
CNC(=O)c1ccc(C)c(-n2c(C)cc(OCc3ccc(F)cc3F)c(Br)c2=O)c1 [PH-797804]	> 30 µM (inactive)
C=CC(=O)N1CCC(Oc2cc3c(Nc4ccc(Cl)c(Cl)c4F)ncnc3cc2OC)CC1 [POZIOTINIB]	> 30 µM (inactive)
CNC(=O)c1cc(Oc2ccc(NC(=O)Nc3ccc(Cl)c(C(F)(F)F)c3)c(F)c2)ccn1 [REGORAFENIB]	> 30 µM (inactive)
COc1cc(OC)c(/C=C/S(=O)(=O)Cc2ccc(OC)c(NCC(=O)O)c2)c(OC)c1 [RIGOSERTIB]	> 30 µM (inactive)
CNC(=O)CN1CCC(Oc2cc3c(Nc4cccc(Cl)c4F)ncnc3cc2OC)CC1 [SAPITINIB]	> 30 µM (inactive)
CN1CCC(CNc2ccc3ncc(-c4cccc(OC(F)(F)F)c4)n3n2)CC1 [SGI-1776]	> 30 µM (inactive)

biological target: T2, Mitogen-activated protein kinase kinase kinase 6 (Homo sapiens, UniProt O95382)
T2 sequence (O95382 whole entry): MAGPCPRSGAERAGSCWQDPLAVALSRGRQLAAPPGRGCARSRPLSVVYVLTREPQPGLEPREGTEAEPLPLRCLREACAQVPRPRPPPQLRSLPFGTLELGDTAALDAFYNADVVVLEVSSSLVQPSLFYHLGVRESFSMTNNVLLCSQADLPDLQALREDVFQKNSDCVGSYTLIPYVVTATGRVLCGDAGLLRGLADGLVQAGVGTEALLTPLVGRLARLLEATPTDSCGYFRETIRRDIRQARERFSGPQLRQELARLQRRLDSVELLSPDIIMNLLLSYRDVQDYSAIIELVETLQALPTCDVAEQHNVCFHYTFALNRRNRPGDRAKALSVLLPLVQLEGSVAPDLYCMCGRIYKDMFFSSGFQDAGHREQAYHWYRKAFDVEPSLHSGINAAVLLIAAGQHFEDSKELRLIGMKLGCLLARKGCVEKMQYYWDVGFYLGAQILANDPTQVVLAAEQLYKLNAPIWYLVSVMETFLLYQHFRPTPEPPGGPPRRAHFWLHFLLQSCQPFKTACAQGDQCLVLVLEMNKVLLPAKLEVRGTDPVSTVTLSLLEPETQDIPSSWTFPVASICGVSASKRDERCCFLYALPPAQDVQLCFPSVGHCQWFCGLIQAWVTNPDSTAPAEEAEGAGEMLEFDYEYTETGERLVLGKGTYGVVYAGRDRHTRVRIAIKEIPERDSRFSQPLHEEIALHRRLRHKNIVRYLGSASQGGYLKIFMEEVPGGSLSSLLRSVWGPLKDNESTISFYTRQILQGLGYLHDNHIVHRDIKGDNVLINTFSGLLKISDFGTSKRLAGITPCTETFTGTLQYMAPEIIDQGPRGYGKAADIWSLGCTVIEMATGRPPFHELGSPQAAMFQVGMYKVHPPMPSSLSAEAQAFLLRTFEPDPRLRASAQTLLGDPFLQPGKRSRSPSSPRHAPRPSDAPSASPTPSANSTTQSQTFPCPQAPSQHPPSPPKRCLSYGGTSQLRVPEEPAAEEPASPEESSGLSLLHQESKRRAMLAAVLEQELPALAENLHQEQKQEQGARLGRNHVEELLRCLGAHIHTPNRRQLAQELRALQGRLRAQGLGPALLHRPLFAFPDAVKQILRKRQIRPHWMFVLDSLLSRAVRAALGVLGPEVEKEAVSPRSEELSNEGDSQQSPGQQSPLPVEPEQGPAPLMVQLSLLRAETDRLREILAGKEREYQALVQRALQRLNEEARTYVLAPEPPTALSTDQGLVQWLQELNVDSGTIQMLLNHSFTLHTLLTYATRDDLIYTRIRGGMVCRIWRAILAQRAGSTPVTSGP

Compound	Kd
C1=C/COCc2cc(ccc2OCCN2CCCC2)Nc2nccc(n2)-c2cccc(c2)COC/1 [PACRITINIB]	> 30 µM (inactive)
Cc1ccc(-n2nc(C(C)(C)C)cc2NC(=O)NCc2cc(F)ccc2Oc2ccc3c(cnn3CCO)c2)cc1 [PEXMETINIB]	> 30 µM (inactive)
OCCn1cc(-c2cnc3nnn(Cc4ccc5ncccc5c4)c3n2)cn1 [PF-04217903]	> 30 µM (inactive)
CNC(=O)c1ccc(C)c(-n2c(C)cc(OCc3ccc(F)cc3F)c(Br)c2=O)c1 [PH-797804]	> 30 µM (inactive)
C=CC(=O)N1CCC(Oc2cc3c(Nc4ccc(Cl)c(Cl)c4F)ncnc3cc2OC)CC1 [POZIOTINIB]	> 30 µM (inactive)
CNC(=O)c1cc(Oc2ccc(NC(=O)Nc3ccc(Cl)c(C(F)(F)F)c3)c(F)c2)ccn1 [REGORAFENIB]	> 30 µM (inactive)
COc1cc(OC)c(/C=C/S(=O)(=O)Cc2ccc(OC)c(NCC(=O)O)c2)c(OC)c1 [RIGOSERTIB]	> 30 µM (inactive)
CNC(=O)CN1CCC(Oc2cc3c(Nc4cccc(Cl)c4F)ncnc3cc2OC)CC1 [SAPITINIB]	> 30 µM (inactive)
CN1CCC(CNc2ccc3ncc(-c4cccc(OC(F)(F)F)c4)n3n2)CC1 [SGI-1776]	> 30 µM (inactive)

biological target: T3, Serine/threonine-protein kinase PLK4 (Homo sapiens, UniProt O00444)
T3 sequence (O00444 whole entry): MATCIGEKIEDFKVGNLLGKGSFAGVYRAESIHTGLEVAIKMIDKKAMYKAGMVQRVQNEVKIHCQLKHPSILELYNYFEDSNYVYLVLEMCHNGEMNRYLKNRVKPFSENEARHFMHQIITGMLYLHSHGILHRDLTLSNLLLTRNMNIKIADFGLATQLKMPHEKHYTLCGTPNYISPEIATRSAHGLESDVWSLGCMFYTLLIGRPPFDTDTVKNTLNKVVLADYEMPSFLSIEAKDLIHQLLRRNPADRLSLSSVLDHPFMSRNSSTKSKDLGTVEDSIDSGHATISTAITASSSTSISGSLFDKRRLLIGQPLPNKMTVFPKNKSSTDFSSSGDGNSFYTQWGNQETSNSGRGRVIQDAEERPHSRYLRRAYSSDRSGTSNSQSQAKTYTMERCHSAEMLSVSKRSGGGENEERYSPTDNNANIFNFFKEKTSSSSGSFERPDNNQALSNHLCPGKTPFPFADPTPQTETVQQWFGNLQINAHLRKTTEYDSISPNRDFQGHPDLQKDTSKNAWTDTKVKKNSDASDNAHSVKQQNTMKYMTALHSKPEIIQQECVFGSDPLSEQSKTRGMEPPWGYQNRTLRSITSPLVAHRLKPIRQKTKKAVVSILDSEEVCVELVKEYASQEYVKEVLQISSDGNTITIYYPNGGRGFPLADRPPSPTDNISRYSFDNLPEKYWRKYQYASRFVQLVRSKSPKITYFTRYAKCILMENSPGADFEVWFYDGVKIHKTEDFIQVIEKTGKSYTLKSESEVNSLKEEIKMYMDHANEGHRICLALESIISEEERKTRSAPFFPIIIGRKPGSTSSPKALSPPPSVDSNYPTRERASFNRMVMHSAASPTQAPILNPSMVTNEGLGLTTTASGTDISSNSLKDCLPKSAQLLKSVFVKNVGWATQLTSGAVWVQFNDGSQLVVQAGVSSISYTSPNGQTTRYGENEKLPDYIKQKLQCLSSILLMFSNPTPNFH

Compound	Kd
C1=C/COCc2cc(ccc2OCCN2CCCC2)Nc2nccc(n2)-c2cccc(c2)COC/1 [PACRITINIB]	> 30 µM (inactive)
Cc1ccc(-n2nc(C(C)(C)C)cc2NC(=O)NCc2cc(F)ccc2Oc2ccc3c(cnn3CCO)c2)cc1 [PEXMETINIB]	> 30 µM (inactive)
OCCn1cc(-c2cnc3nnn(Cc4ccc5ncccc5c4)c3n2)cn1 [PF-04217903]	> 30 µM (inactive)
CNC(=O)c1ccc(C)c(-n2c(C)cc(OCc3ccc(F)cc3F)c(Br)c2=O)c1 [PH-797804]	> 30 µM (inactive)
C=CC(=O)N1CCC(Oc2cc3c(Nc4ccc(Cl)c(Cl)c4F)ncnc3cc2OC)CC1 [POZIOTINIB]	> 30 µM (inactive)
CNC(=O)c1cc(Oc2ccc(NC(=O)Nc3ccc(Cl)c(C(F)(F)F)c3)c(F)c2)ccn1 [REGORAFENIB]	> 30 µM (inactive)
COc1cc(OC)c(/C=C/S(=O)(=O)Cc2ccc(OC)c(NCC(=O)O)c2)c(OC)c1 [RIGOSERTIB]	> 30 µM (inactive)
CNC(=O)CN1CCC(Oc2cc3c(Nc4cccc(Cl)c4F)ncnc3cc2OC)CC1 [SAPITINIB]	> 30 µM (inactive)
CN1CCC(CNc2ccc3ncc(-c4cccc(OC(F)(F)F)c4)n3n2)CC1 [SGI-1776]	> 30 µM (inactive)

biological target: Receptor-interacting serine/threonine-protein kinase 3 (Homo sapiens, UniProt Q9Y572)
Sequence (Q9Y572 whole entry): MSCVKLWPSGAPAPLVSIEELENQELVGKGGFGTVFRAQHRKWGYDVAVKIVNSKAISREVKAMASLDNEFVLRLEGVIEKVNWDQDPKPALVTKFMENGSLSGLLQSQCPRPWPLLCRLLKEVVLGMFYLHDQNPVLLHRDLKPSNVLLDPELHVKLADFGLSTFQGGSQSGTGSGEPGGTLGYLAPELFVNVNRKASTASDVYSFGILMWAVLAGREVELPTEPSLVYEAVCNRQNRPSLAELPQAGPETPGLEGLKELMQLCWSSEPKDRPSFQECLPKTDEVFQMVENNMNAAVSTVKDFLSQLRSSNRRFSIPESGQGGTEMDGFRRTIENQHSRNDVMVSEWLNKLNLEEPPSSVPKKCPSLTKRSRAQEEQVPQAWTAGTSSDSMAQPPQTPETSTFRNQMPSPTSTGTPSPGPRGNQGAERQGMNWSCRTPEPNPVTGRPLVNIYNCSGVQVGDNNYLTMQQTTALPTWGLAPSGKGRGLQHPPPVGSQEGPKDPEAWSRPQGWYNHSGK

Compound	Kd
C1=C/COCc2cc(ccc2OCCN2CCCC2)Nc2nccc(n2)-c2cccc(c2)COC/1 [PACRITINIB]	> 30 µM (inactive)
Cc1ccc(-n2nc(C(C)(C)C)cc2NC(=O)NCc2cc(F)ccc2Oc2ccc3c(cnn3CCO)c2)cc1 [PEXMETINIB]	0.662 µM (active)
OCCn1cc(-c2cnc3nnn(Cc4ccc5ncccc5c4)c3n2)cn1 [PF-04217903]	> 30 µM (inactive)
CNC(=O)c1ccc(C)c(-n2c(C)cc(OCc3ccc(F)cc3F)c(Br)c2=O)c1 [PH-797804]	> 30 µM (inactive)
C=CC(=O)N1CCC(Oc2cc3c(Nc4ccc(Cl)c(Cl)c4F)ncnc3cc2OC)CC1 [POZIOTINIB]	0.392 µM (active)
CNC(=O)c1cc(Oc2ccc(NC(=O)Nc3ccc(Cl)c(C(F)(F)F)c3)c(F)c2)ccn1 [REGORAFENIB]	0.368 µM (active)
COc1cc(OC)c(/C=C/S(=O)(=O)Cc2ccc(OC)c(NCC(=O)O)c2)c(OC)c1 [RIGOSERTIB]	> 30 µM (inactive)
CNC(=O)CN1CCC(Oc2cc3c(Nc4cccc(Cl)c4F)ncnc3cc2OC)CC1 [SAPITINIB]	1.17 µM (active)
CN1CCC(CNc2ccc3ncc(-c4cccc(OC(F)(F)F)c4)n3n2)CC1 [SGI-1776]	> 30 µM (inactive)
